From patent US20110257732A1, “STENTS HAVING CONTROLLED ELUTION” (Micell Technologies, Inc., priority 2010, published 2011)

Legend:
[1] = Sirolimus remaining on and released from explanted stents (Example 34); format: in vivo, porcine; settings: for Stent-associated sirolimus, Drug Released, Mean: calculated from Day 0 baseline measurement
Experimental: (§1) Pharmacokinetic studies were performed on coated stents prepared and implanted as noted in Example 32. […] The coating encapsuled each of the stents.
(§2) Complete balloon deflation was verified with fluoroscopy.
(§3) Subjects were euthanized at the testing time points, and the tissue adjacent the stent (for non-limiting example, tissue surrounding the stent—referred to generally as arterial tissue) was extracted for analysis of the amount of pharmaceutical agent therein. Stents were also analyzed for the amount of pharmaceutical agent remaining on the coated stent at each time point. Testing methods as noted elsewhere herein were used to determine the amount of pharmaceutical agent remaining on the stent or in the tissue, and/or are methods that would be known to one of skill in the art.

[2] = Stented artery sirolimus concentration (Example 34); format: in vivo, porcine; settings: for Pharmaceutical agent released from the coated stent recovered in the analyzed arterial tissue: based on 135 micrograms on the original stent at time 0
Experimental: as §1, §2, §3

[3] = Whole blood rapamycin concentration after coated stent implantation, LC-MS/MS (Example 32); settings: every time point 5 minutes to day 180, every subject; one coated stent (135 micrograms sirolimus) per porcine subject
Experimental: Blood serum levels of porcine subjects having coated stents implanted were tested at multiple time points. The coated stents implanted were prepared as follows: coated stents for the study comprise a coating that was deposited on the stent by deposition of rapamycin in dry powder form by RESS methods and equipment described herein and deposition of polymer particles by RESS methods and equipment described herein. A PDPDP (Polymer, sinter, Drug, Polymer, sinter, Drug, Polymer, sinter) coating sequence was used wherein the polymer was 50:50 PLGA, and the drug was rapamycin. The sinter step was performed at 100° C./150 psi/10 min after each “P” (or polymer) layer. […] The coating was about 5-15 micrometers thick on each stent, and comprised a thicker coating on the abluminal surface (coating bias). […]
Multiple batches of coated stents were created, implanted in the porcine subjects, one coated stent per subject, and each subject's blood serum levels were tested at multiple time points. […] The balloon was then inflated at a steady rate to a pressure sufficient to target a visually assessed balloon-artery ratio of 1.1:1-1.2:1. Confirmation of this balloon-artery ratio was made when the angiographic images were quantitatively assessed. […]
The whole blood sample was tested for rapamycin concentration using LC-MS/MS. Samples were quantified for rapamycin using ascomycin as the internal standard. […]

[4] = Day 60, porcine coronary artery
[5] = Day 90, porcine coronary artery

Stent-associated sirolimus, Drug Released, Mean ([1]; Day 0 baseline): 0 µg
Stent-associated sirolimus, Drug Remaining, Mean ([1]; Day 0 baseline, coated stent (PDPDP, 50:50 PLGA, 135 micrograms sirolimus)): 137.00 µg
Stent-associated sirolimus, Drug Remaining, Mean ([1]; Day 1, coated stent (PDPDP, 50:50 PLGA, 135 micrograms sirolimus) in porcine coronary artery): 137.00 µg
Stent-associated sirolimus, Drug Released, Mean ([1]; Day 1, porcine coronary artery): 1.67 µg
Stent-associated sirolimus, Drug Remaining, Mean ([1]; Day 3, coated stent (PDPDP, 50:50 PLGA, 135 micrograms sirolimus) in porcine coronary artery): 135.83 µg
Stent-associated sirolimus, Drug Released, Mean ([1]; Day 3, porcine coronary artery): 2.83 µg
Stent-associated sirolimus, Drug Remaining, Mean ([1]; Day 7, coated stent (PDPDP, 50:50 PLGA, 135 micrograms sirolimus) in porcine coronary artery): 127.83 µg
Stent-associated sirolimus, Drug Released, Mean ([1]; Day 7, porcine coronary artery): 9.17 µg
Stent-associated sirolimus, Drug Remaining, Mean ([1]; Day 14, coated stent (PDPDP, 50:50 PLGA, 135 micrograms sirolimus) in porcine coronary artery): 119.67 µg
Stent-associated sirolimus, Drug Released, Mean ([1]; Day 14, porcine coronary artery): 17.33 µg
Stent-associated sirolimus, Drug Remaining, Mean ([1]; Day 21, coated stent (PDPDP, 50:50 PLGA, 135 micrograms sirolimus) in porcine coronary artery): 103.68 µg
Stent-associated sirolimus, Drug Released, Mean ([1]; Day 21, porcine coronary artery): 33.32 µg
Stent-associated sirolimus, Drug Remaining, Mean ([1]; Day 30, coated stent (PDPDP, 50:50 PLGA, 135 micrograms sirolimus) in porcine coronary artery): 65.25 µg
Stent-associated sirolimus, Drug Released, Mean ([1]; Day 30, porcine coronary artery): 71.75 µg
Stent-associated sirolimus, Drug Remaining, Mean ([1]; Day 45, coated stent (PDPDP, 50:50 PLGA, 135 micrograms sirolimus) in porcine coronary artery): 3.89 µg
Stent-associated sirolimus, Drug Released, Mean ([1]; Day 45, porcine coronary artery): 133.12 µg
Stent-associated sirolimus, Drug Remaining, Mean ([1]; Day 60, coated stent (PDPDP, 50:50 PLGA, 135 micrograms sirolimus) in porcine coronary artery): 1.59 µg
Average incremental stent sirolimus elution (loss) rate [1, 4]: 0.15 ± 0.04 µg/day
Stent-associated sirolimus, Drug Released, Mean [1, 4]: 135.41 µg
Stent-associated sirolimus, Drug Remaining, Mean ([1]; Day 90, coated stent (PDPDP, 50:50 PLGA, 135 micrograms sirolimus) in porcine coronary artery): 0.11 µg
Average incremental stent sirolimus elution (loss) rate [1, 5]: 0.05 ± 0.00 µg/day
Stent-associated sirolimus, Drug Released, Mean [1, 5]: 136.89 µg
Average incremental stent sirolimus elution (loss) rate ([1]; peak around day 30, porcine coronary artery): 4.27 ± 1.69 µg/day
Pharmaceutical agent released from the coated stent recovered in the analyzed arterial tissue ([2]; at day 30): about 60%
Pharmaceutical agent released from the coated stent recovered in the analyzed arterial tissue ([2]; between days 3 and 60): about 40%
concentration at 1 day ([2]; pig, stented arterial tissue, other: coated stent implanted in coronary artery, 135 micrograms per stent, day 1, porcine, coated stent 135 micrograms sirolimus, read-out: Stented artery sirolimus concentration (tissue within stented segments)): 19600 ng/g
concentration at 3 day ([2]; pig, stented arterial tissue, other: coated stent implanted in coronary artery, 135 micrograms per stent, day 3, porcine, coated stent 135 micrograms sirolimus, read-out: Stented artery sirolimus concentration (tissue within stented segments)): 21400 ng/g
concentration at 7 day ([2]; pig, stented arterial tissue, other: coated stent implanted in coronary artery, 135 micrograms per stent, day 7, porcine, coated stent 135 micrograms sirolimus, read-out: Stented artery sirolimus concentration (tissue within stented segments)): 42200 ng/g
concentration at 14 day ([2]; pig, stented arterial tissue, other: coated stent implanted in coronary artery, 135 micrograms per stent, day 14, porcine, coated stent 135 micrograms sirolimus, read-out: Stented artery sirolimus concentration (tissue within stented segments)): 55900 ng/g
concentration at 21 day ([2]; pig, stented arterial tissue, other: coated stent implanted in coronary artery, 135 micrograms per stent, day 21, porcine, coated stent 135 micrograms sirolimus, read-out: Stented artery sirolimus concentration (tissue within stented segments)): 173000 ng/g
concentration at 30 day ([2]; pig, stented arterial tissue, other: coated stent implanted in coronary artery, 135 micrograms per stent, day 30, porcine, coated stent 135 micrograms sirolimus, read-out: Stented artery sirolimus concentration (tissue within stented segments)): 565000 ng/g
concentration at 45 day ([2]; pig, stented arterial tissue, other: coated stent implanted in coronary artery, 135 micrograms per stent, day 45, porcine, coated stent 135 micrograms sirolimus, read-out: Stented artery sirolimus concentration (tissue within stented segments)): 582000 ng/g
concentration at 60 day ([2]; pig, stented arterial tissue, other: coated stent implanted in coronary artery, 135 micrograms per stent, day 60, porcine, coated stent 135 micrograms sirolimus, read-out: Stented artery sirolimus concentration (tissue within stented segments)): 532000 ng/g
concentration at 90 day ([2]; pig, stented arterial tissue, other: coated stent implanted in coronary artery, 135 micrograms per stent, day 90, porcine, coated stent 135 micrograms sirolimus, read-out: Stented artery sirolimus concentration (tissue within stented segments)): 251000 ng/g
Concentration of rapamycin in whole blood (below quantifiable limit) [3]: < 0.100 ng/mL
SMILES: CO[C@H]1C[C@@H]2CC[C@@H](C)[C@@](O)(O2)C(=O)C(=O)N2CCCC[C@H]2C(=O)O[C@H]([C@H](C)C[C@@H]2CC[C@@H](O)[C@H](OC)C2)CC(=O)[C@H](C)/C=C(\C)[C@@H](O)[C@@H](OC)C(=O)[C@H](C)C[C@H](C)/C=C/C=C/C=C/1C [rapamycin]
